≈ marks a conversion by molar mass, not a printed value.
Legend:
[1] = target: human soluble guanylate cyclase alpha 1 and beta 1 subunits (sGC) (Homo sapiens (Human), UniProt Q02108+Q02153); assay: sGC cellular activator assay (cGMP, HTRF), in the presence and absence of 50% human serum; type: cell-based; conditions: CHO cells stably expressing human sGC alpha 1/beta 1, preincubated with 40 microM ODQ; cGMP by HTRF; Table 2 does not state whether with or without 50% human serum
Summary of the method: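 First, CHO-sGC (human α1β1) cells get 1 h ODQ at 40 microM with IBMX and 0.1% BSA. Finally, cGMP is quantified by HTRF and EC50 computed.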

physchem = conditions: kinetic from dmso stock
[2] = Human liver microsome (HLM) metabolic stability assay; type: in vitro ADME; conditions: human liver microsomes
Summary of the method: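 Remaining parent measured by LC/MS/MS (ESI, MRM) at 5, 15, 30 and 60 min relative to 0 min. Incubation: 1 uM compound, HLMs, NADPH-started, 37° C., 60 min total, single replicate. Slope of ln(% remaining) gives t1/2 = 0.693/slope, then CLint, CLh and % Qh.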

[3] = pH 2.2, aqueous buffer, Solubility (pH 2.2)
[4] = pH 4.5, aqueous buffer, Solubility (pH 4.5)
[5] = pH 6.8, aqueous buffer, Solubility (pH 6.8)

Sequence of human soluble guanylate cyclase alpha 1 and beta 1 subunits (sGC) (Q02108 whole entry partner): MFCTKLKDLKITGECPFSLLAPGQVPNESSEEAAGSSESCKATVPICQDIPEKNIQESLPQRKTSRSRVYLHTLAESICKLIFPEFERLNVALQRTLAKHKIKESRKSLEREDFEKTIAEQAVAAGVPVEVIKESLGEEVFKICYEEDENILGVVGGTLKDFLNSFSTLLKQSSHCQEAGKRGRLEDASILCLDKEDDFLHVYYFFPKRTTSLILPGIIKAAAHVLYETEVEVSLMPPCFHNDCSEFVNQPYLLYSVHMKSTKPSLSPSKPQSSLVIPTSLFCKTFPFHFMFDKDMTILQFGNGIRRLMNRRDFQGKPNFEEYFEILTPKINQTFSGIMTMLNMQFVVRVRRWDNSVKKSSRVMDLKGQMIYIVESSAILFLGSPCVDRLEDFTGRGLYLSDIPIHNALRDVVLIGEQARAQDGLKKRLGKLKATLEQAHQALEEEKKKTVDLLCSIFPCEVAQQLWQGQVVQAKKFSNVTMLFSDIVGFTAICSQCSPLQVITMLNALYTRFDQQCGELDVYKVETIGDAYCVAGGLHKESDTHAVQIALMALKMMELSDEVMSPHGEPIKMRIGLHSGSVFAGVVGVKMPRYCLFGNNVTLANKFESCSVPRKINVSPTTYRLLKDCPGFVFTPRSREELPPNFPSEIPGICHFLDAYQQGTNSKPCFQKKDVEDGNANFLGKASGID
Sequence of human soluble guanylate cyclase alpha 1 and beta 1 subunits (sGC) (Q02153 whole entry): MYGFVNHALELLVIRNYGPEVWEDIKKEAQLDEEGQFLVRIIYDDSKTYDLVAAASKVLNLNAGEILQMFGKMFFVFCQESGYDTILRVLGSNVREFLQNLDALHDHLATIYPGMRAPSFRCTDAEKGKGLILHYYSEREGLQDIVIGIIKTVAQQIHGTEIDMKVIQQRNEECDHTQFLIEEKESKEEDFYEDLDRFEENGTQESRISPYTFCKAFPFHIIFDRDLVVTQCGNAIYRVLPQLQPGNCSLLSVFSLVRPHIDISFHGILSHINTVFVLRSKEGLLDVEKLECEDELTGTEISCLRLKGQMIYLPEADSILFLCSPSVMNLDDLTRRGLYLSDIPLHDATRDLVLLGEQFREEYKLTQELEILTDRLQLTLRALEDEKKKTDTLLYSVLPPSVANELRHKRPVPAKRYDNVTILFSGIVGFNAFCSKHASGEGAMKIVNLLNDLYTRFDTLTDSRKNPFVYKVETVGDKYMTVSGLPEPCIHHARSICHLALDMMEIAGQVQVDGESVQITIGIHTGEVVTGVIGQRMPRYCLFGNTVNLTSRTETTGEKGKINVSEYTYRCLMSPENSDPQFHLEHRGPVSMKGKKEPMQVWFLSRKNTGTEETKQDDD

| SMILES | EC50 [1] | solubility at 24 h (physchem; [3]) | solubility at 24 h (physchem; [4]) | solubility at 24 h (physchem; [5]) | Metabolic stability (Qh %), % hepatic blood flow [2] |
| --- | --- | --- | --- | --- | --- |
| CO[C@H]1CN(c2cccc(-c3cccc(C)c3OCc3ccc4c(c3)CCN(C3CCOCC3)C4)n2)CC[C@H]1C(=O)O [Compound 64, (3R,4R)-3-Methoxy-6′-{3-methyl-2-[2-(tetrahydro-pyran-4-yl)-1,2,3,4-tetrahydro-isoquinolin-6-ylmethoxy]-phenyl}-3,4,5,6-tetrahydro-2H-[1,2′]bipyridinyl-4-carboxylic acid] | 0.036 µM | 100 µg/mL (≈ 175 µM) | 88 µg/mL (≈ 154 µM) | 69 µg/mL (≈ 121 µM) | 29% |
| CO[C@@H]1CN(c2cccc(-c3cccc(C)c3OCc3ccc4c(c3)CCN(C3CCOCC3)C4)n2)CC[C@@H]1C(=O)O [Compound 67] | 0.023 µM | 100 µg/mL (≈ 175 µM) | 92 µg/mL (≈ 161 µM) | 71 µg/mL (≈ 124 µM) | <24% |
| O=C(O)[C@@]12CCN(c3nc(-c4ccccc4OCc4ccc5c(c4)CCN(C4CCOCC4)C5)cs3)C[C@@H]1C2 [Compound 82] | 0.01 µM | 100 µg/mL (≈ 183 µM) | 40 µg/mL (≈ 73.3 µM) | 22 µg/mL (≈ 40.3 µM) | <24% |
| Cc1c(COc2ccccc2-c2csc(N3CC[C@@]4(C(=O)O)C[C@H]4C3)n2)ccc2c1CCN(C1CCOCC1)C2 [Compound 83] | 0.004 µM | 120 µg/mL (≈ 214 µM) | 47 µg/mL (≈ 84 µM) | 13 µg/mL (≈ 23.2 µM) | <24% |
| Cc1cccc(-c2csc(N3CC[C@@]4(C(=O)O)C[C@H]4C3)n2)c1OCc1ccc2c(c1)CCN(C1CCOCC1)C2 [Compound 84] | 0.027 µM | 120 µg/mL (≈ 214 µM) | 70 µg/mL (≈ 125 µM) | 53 µg/mL (≈ 94.7 µM) | <24% |
| Cc1cccc(-c2csc(N3CC[C@@]4(C(=O)O)C[C@H]4C3)n2)c1OCc1ccc2c(c1)CCN(C1COC1)C2 [Compound 85] | 0.028 µM | 120 µg/mL (≈ 226 µM) | 52 µg/mL (≈ 97.8 µM) | 55 µg/mL (≈ 103 µM) | 29% |
| Cc1cccc(-c2csc(N3CC[C@@]4(C(=O)O)C[C@H]4C3)n2)c1OCc1ccc2c(c1C)CCN(CC1COCCO1)C2 (some centres unmarked) [Compound 86] | 0.002 µM | 120 µg/mL (≈ 203 µM) | 71 µg/mL (≈ 120 µM) | 57 µg/mL (≈ 96.6 µM) | 41% |
| Cc1cccc(-c2csc(N3CC[C@@]4(C(=O)O)C[C@H]4C3)n2)c1OCc1ccc2c(c1C)CCN(C1CCCOC1)C2 (some centres unmarked) [Compound 87] | 0.002 µM | 120 µg/mL (≈ 209 µM) | 67 µg/mL (≈ 117 µM) | 28 µg/mL (≈ 48.8 µM) | 55% |
| Cc1cccc(-c2csc(N3CC[C@@]4(C(=O)O)C[C@H]4C3)n2)c1OCc1ccc2c(c1C)CCN(C1CCOC1)C2 (some centres unmarked) [Compound 88] | 0.004 µM | 120 µg/mL (≈ 214 µM) | 69 µg/mL (≈ 123 µM) | 48 µg/mL (≈ 85.8 µM) | 43% |
| Cc1cc(COc2c(C)cccc2-c2csc(N3CC[C@@]4(C(=O)O)C[C@H]4C3)n2)cc2c1CN(CC1COCCO1)CC2 (some centres unmarked) [Compound 91] | 0.003 µM | 120 µg/mL (≈ 203 µM) | 68 µg/mL (≈ 115 µM) | 41 µg/mL (≈ 69.5 µM) | <24% |
| Cc1cc(COc2c(C)cccc2-c2csc(N3CC[C@@]4(C(=O)O)C[C@H]4C3)n2)cc2c1CN(C1CCCOC1)CC2 (some centres unmarked) [Compound 94] | 0.003 µM | 120 µg/mL (≈ 209 µM) | 55 µg/mL (≈ 95.9 µM) | 19 µg/mL (≈ 33.1 µM) | 42% |
| Cc1cc(COc2c(C)cccc2-c2csc(N3CC[C@@]4(C(=O)O)C[C@H]4C3)n2)cc2c1CN(C1CCOC1)CC2 (some centres unmarked) [Compound 95] | 0.002 µM | 120 µg/mL (≈ 214 µM) | 66 µg/mL (≈ 118 µM) | 31 µg/mL (≈ 55.4 µM) | 49% |
| Cc1cc(COc2c(C)cccc2-c2csc(N3CC[C@@]4(C(=O)O)C[C@H]4C3)n2)cc2c1CN(C1CCOCC1)CC2 [Compound 96] | 0.002 µM | 120 µg/mL (≈ 209 µM) | 68 µg/mL (≈ 119 µM) | 52 µg/mL (≈ 90.6 µM) | 33% |
| Cc1cc(COc2c(C)cccc2-c2csc(N3CC[C@@]4(C(=O)O)C[C@H]4C3)n2)c(C)c2c1CN(CC1COCCO1)CC2 (some centres unmarked) [Compound 98] | 0.001 µM | 120 µg/mL (≈ 199 µM) | 75 µg/mL (≈ 124 µM) | 31 µg/mL (≈ 51.3 µM) | 48% |
| Cc1cc(COc2c(C)cccc2-c2csc(N3CC[C@@]4(C(=O)O)C[C@H]4C3)n2)c(C)c2c1CN(C1CCCOC1)CC2 (some centres unmarked) [Compound 99] | 0.003 µM | 120 µg/mL (≈ 204 µM) | 69 µg/mL (≈ 117 µM) | 14 µg/mL (≈ 23.8 µM) | 59% |
| Cc1cc(COc2c(C)cccc2-c2csc(N3CC[C@@]4(C(=O)O)C[C@H]4C3)n2)c(C)c2c1CN(C1CCOC1)CC2 (some centres unmarked) [Compound 100] | 0.003 µM | 130 µg/mL (≈ 227 µM) | 68 µg/mL (≈ 119 µM) | 27 µg/mL (≈ 47.1 µM) | 55% |

Further lines, results first:

| EC50 [1] | solubility at 24 h (physchem; [3]) | solubility at 24 h (physchem; [4]) | solubility at 24 h (physchem; [5]) | Metabolic stability (Qh %), % hepatic blood flow [2] | SMILES |
| --- | --- | --- | --- | --- | --- |
| 0.029 µM | 130 µg/mL (≈ 222 µM) | 110 µg/mL (≈ 188 µM) | 80 µg/mL (≈ 137 µM) | 31% | CO[C@H]1CN(c2cccc(-c3cccc(C)c3OCc3ccc4c(c3C)CCN(C3CCOCC3)C4)n2)CC[C@H]1C(=O)O [Compound 65] |
| 0.02 µM | 100 µg/mL (≈ 179 µM) | 84 µg/mL (≈ 151 µM) | 64 µg/mL (≈ 115 µM) | 33% | CO[C@H]1CN(c2cccc(-c3cccc(C)c3OCc3ccc4c(c3C)CCN(C3COC3)C4)n2)CC[C@H]1C(=O)O [Compound 66] |
| 0.014 µM | 140 µg/mL (≈ 239 µM) | 120 µg/mL (≈ 205 µM) | 93 µg/mL (≈ 159 µM) | <24% | CO[C@@H]1CN(c2cccc(-c3cccc(C)c3OCc3ccc4c(c3C)CCN(C3CCOCC3)C4)n2)CC[C@@H]1C(=O)O [Compound 68] |
| 0.016 µM | 130 µg/mL (≈ 233 µM) | 110 µg/mL (≈ 197 µM) | 89 µg/mL (≈ 160 µM) | <24% | CO[C@@H]1CN(c2cccc(-c3cccc(C)c3OCc3ccc4c(c3C)CCN(C3COC3)C4)n2)CC[C@@H]1C(=O)O [Compound 69] |
| 0.12 µM | 130 µg/mL (≈ 227 µM) | 120 µg/mL (≈ 210 µM) | 83 µg/mL (≈ 145 µM) | <24% | CO[C@H]1CN(c2cccc(-c3cc(C)ccc3OCc3ccc4c(c3)CCN(C3CCOCC3)C4)n2)CC[C@H]1C(=O)O [Compound 70] |
| 0.11 µM | 130 µg/mL (≈ 222 µM) | 110 µg/mL (≈ 188 µM) | 81 µg/mL (≈ 138 µM) | <24% | CO[C@H]1CN(c2cccc(-c3cc(C)ccc3OCc3ccc4c(c3C)CCN(C3CCOCC3)C4)n2)CC[C@H]1C(=O)O [Compound 71] |
| 0.064 µM | 120 µg/mL (≈ 205 µM) | 100 µg/mL (≈ 171 µM) | 74 µg/mL (≈ 126 µM) | <24% | CO[C@H]1CN(c2cccc(-c3cc(C)ccc3OCc3cc(C)c4c(c3)CCN(C3CCOCC3)C4)n2)CC[C@H]1C(=O)O [Compound 72] |
| 0.057 µM | 110 µg/mL (≈ 183 µM) | 93 µg/mL (≈ 155 µM) | 69 µg/mL (≈ 115 µM) | 28% | CO[C@H]1CN(c2cccc(-c3cc(C)ccc3OCc3ccc4c(c3C)CCN(C3CCOCC3)CC4)n2)CC[C@H]1C(=O)O [Compound 73] |
| 0.02 µM | 120 µg/mL (≈ 210 µM) | 100 µg/mL (≈ 175 µM) | 80 µg/mL (≈ 140 µM) | <24% | CO[C@@H]1CN(c2cccc(-c3cc(C)ccc3OCc3ccc4c(c3)CCN(C3CCOCC3)C4)n2)CC[C@@H]1C(=O)O [Compound 74] |
| 0.015 µM | 120 µg/mL (≈ 205 µM) | 110 µg/mL (≈ 188 µM) | 74 µg/mL (≈ 126 µM) | <24% | CO[C@@H]1CN(c2cccc(-c3cc(C)ccc3OCc3ccc4c(c3C)CCN(C3CCOCC3)C4)n2)CC[C@@H]1C(=O)O [Compound 75] |
| 0.025 µM | 130 µg/mL (≈ 222 µM) | 110 µg/mL (≈ 188 µM) | 80 µg/mL (≈ 137 µM) | <24% | CO[C@@H]1CN(c2cccc(-c3cc(C)ccc3OCc3cc(C)c4c(c3)CCN(C3CCOCC3)C4)n2)CC[C@@H]1C(=O)O [Compound 76] |
| 0.071 µM | 110 µg/mL (≈ 192 µM) | 95 µg/mL (≈ 166 µM) | 64 µg/mL (≈ 112 µM) | <24% | CO[C@@H]1CN(c2cccc(-c3cc(C)ccc3OCc3cc(C)c4c(c3)CCN(C3CCOC3)C4)n2)CC[C@@H]1C(=O)O (some centres unmarked) [Compound 77] |
| 0.025 µM | 140 µg/mL (≈ 233 µM) | 120 µg/mL (≈ 200 µM) | 91 µg/mL (≈ 152 µM) | <24% | CCc1cc(COc2ccc(C)cc2-c2cccc(N3CC[C@H](C(=O)O)[C@H](OC)C3)n2)cc2c1CN(C1CCOCC1)CC2 [Compound 79] |
| 0.023 µM | 150 µg/mL (≈ 249 µM) | 130 µg/mL (≈ 216 µM) | 92 µg/mL (≈ 153 µM) | <24% | COc1cc(COc2ccc(C)cc2-c2cccc(N3CC[C@H](C(=O)O)[C@H](OC)C3)n2)cc2c1CN(C1CCOCC1)CC2 [Compound 80] |
| 0.03 µM | > 160 µg/mL | > 160 µg/mL | 91 µg/mL (≈ 152 µM) | 30% | CO[C@@H]1CN(c2cccc(-c3cc(C)ccc3OCc3ccc4c(c3C)CCN(C3CCOCC3)CC4)n2)CC[C@@H]1C(=O)O [Compound 81] |

Reference: patent publication US9353090B2, “Heterocyclic carboxylic acids as activators of soluble guanylate cyclase” (Boehringer Ingelheim International GmbH, priority 2014, dated 2016)
